This is an account of results in patent US20090076029A1 (Palatin Technologies, Inc., priority 2007, published 2009).

The test system of assay [1] is T1, mutant L250Q MC4-R.
T1 construct: expressed in transfected cells
In words: Reversal of AgRP inverse agonism in cells expressing mutant L250Q MC4-R. It is filed as cell-based, human. As to conditions: HEK-293 cells expressing mutant L250Q MC4 receptors; FIG. 8. From the text:
Expression of recombinant mutant hMC4-R in which a glutamine is exchanged for leucine in amino acid position 250 (L250Q) results in production of increased levels of cAMP in the absence of agonist (Vaisse C. et al., Melanocortin-4 receptor mutations are a frequent and heterogeneous cause of morbid obesity. J Clin Invest 106:253-262, 2000). In some cases, reversal of the inverse agonist activity of AgRP was examined in cells that expressed mutant L250Q MC4-R coupled to a high level of constitutive activity. FIG. 8 illustrates the results obtained with the mutant L250Q MC4-R system.

For assay [2], the system named is T2, hMC5-R.
T2 construct: expressed in transfected cells; host or cells: HEK-293
In words: cAMP functional assay, HEK-293 cells expressing hMC5-R. The assay is classed as cell-based, human. As to conditions: cAMP assay at 1 μM. (Cyclic AMP is a second messenger, typically raised through Gs and lowered through Gi signalling.)

Assay [3] has as its system T3, MC1-R.
T3 construct: from B-16 mouse melanoma cells (containing MC1-R); endogenous in cells; host or cells: B-16 mouse melanoma cells
In words: cAMP functional assay, B-16 mouse melanoma cells expressing MC1-R. The assay is classed as cell-based. As to conditions: cAMP assay at 1 μM.

The test system of assay [4] is T4, MC4-R.
T4 construct: expressed in transfected cells; host or cells: HEK-293
The assay is classed as cell-based. Here is the method: Antagonists of AgRP. […] The experimental protocol was essentially as described above for the antagonist assay. […] HEK-293 cells expressing MC4-R were suspended in 10 mM HEPES (pH 7.5) and Earle's Balanced Salt Solution with the phosphodiesterase inhibitor IBMX. The cells were pre-incubated for 30 minutes with the test compounds over a concentration of 0.5 nM to 5000 nM. The cells were then treated with AgRP (100 nM) and incubated for 1 hour. Cells were lysed and cAMP was measured using an EIA kit (Amersham).

For assay [5], the target named is T5, MC1-R.
T5 construct: other: 1 μM compound
As to the kind of experiment: Competitive inhibition assay using [I125]-NDP-α-MSH, MC1-R membranes. The assay is classed as binding, mouse.

Usually Ki stands for a measure of affinity in units of concentration, obtained from inhibition or displacement. High values mean weaker binding, low ones tighter binding. As a reminder, the Inhibition is how much of the control response was suppressed. For `CC(C)C[C@@H]1CN(C(=O)[C@H](N)Cc2ccc(Cl)cc2Cl)[C@@H](CCCNC(=N)N)CN1CCc1ccc2ccccc2c1` [Example 4, N-{3-[1-[2(R)-Amino-3-(2,4-dichloro-phenyl)-propionyl]-5(R)-isobutyl-4-(2-naphthalen-2-yl-ethyl)-piperazin-2(S)-yl]-propyl}-guanidine], in assay [1], the “effect on AgRP-induced decrease in cAMP levels” value is listed as “reversal of AgRP-induced decrease in the levels of cAMP”. For the same compound, the “functional status at MC5-R” value in assay [2] is “partial agonist (intrinsic activity between 0.1 (10%) and 0.7 (70%) is classified as a partial agonist)”. In addition, the “functional status at MC1-R” value in assay [3] was “no intrinsic activity (intrinsic activity below 0.1 (10%) is classified as inactive or having no intrinsic activity)”. For the same compound, in assay [4], the “activity on AgRP induced inverse agonism” value was “antagonistic activity”. This compound had a Ki in assay [5] of 1360 nM. The “Inhibition at 1 μM (NDP-α-MSH) MC1-R” value in assay [5] (1 μM compound) is listed as 21%.
